Experimental data published in patent US20110165226A1, “INFLUENZA CAP-LEADER SEQUENCE” (priority 2008, published 2011).

System: Influenza virus strain A/Puerto Rico/8/34 (H1/N1)
Type: biochemical

| Substance | transcripts containing capped leaders originating from the mutant |
| --- | --- |
| C10A11G12C13: leader length construct, CAGC within oligo U stretch, first base pairing A at position 11 (DNA CGACTCACTATAGTATTTTTTCAGCTTTTTTTTTCAAAATATTCCAAT; chemistry not fully specified; the letters are possibly those of the target site) | 5 transcripts |
| C9A10G11C12: leader length construct, CAGC within oligo U stretch, first base pairing A at position 10 (DNA CGACTCACTATAGTATTTTTCAGCTTTTTTTTTTCAAAATATTCCAAT; chemistry not fully specified; the letters are possibly those of the target site) | 9 transcripts |
